In assay [1] the test system is SK-OV-3 cells. Description: sulforhodamine B (SRB) antiproliferative assay. Format: cell-based, human. Particulars: 48 h; mean ± SEM; read-out: GI50, concentration that causes a 50% decrease in proliferation, SK-OV-3. An excerpt:
(§1) HCC1806 (CRL-2335) and HCC1937 (CRL-2336) human triple-negative breast cancer cells, HeLa (CCL-2) cervical cancer cells and SK-OV-3 (HTB-77) ovarian cancer cells were obtained from ATCC (Manassas, Va.) and validated by STR profiling (Genetica). SK-OV-3 cells stably overexpressing Pgp by adenoviral-mediated expression of MDR1 were obtained from Dr. Susan Kane and subcloned by limiting dilution to isolate the single-cell clones utilized in these studies as SK-OV-3-MDR-1-6/6 (Risinger, A. L. et al. (2008) Cancer Res. 68, 8881-8888). A single-cell clone from transfection of HeLa cells with βIII-tubulin, designated wild type βIII, was constructed and obtained from Dr. Richard Luduena (Risinger, A. L. et al. (2008) Cancer Res. 68, 8881-8888). HCC1806 and HCC1937 cells were cultured in RPMI 1640 media (Corning) with 10% FBS (Cellgro) and 50 μg/mL gentamicin (Gibco). HeLa, […] expressing HeLa, SK-OV-3 and SK-OV-3/MDR-1-6/6 cells were grown in BME media with Earle's salts (Gibco) with 10% FBS, 1× final 1% GlutaMax™ Supplement (Gibco), and […] gentamicin. The use of HeLa cells allows for the direct comparison of the in vitro potency as compared to other compounds of this class, which have been predominantly reported in this line and compound potencies are consistent among three additional cancer cell lines. HeLa cells were also used for ectopic expression of tubulin mutants due to the high degree of transfectability of this cell line. Cells were tested for mycoplasma contamination using the Mycoplasma Detection Kit-Quick Test (Cat: B39032, Lot: JW004).
(§2) The sulforhodamine B (SRB) assay was utilized to examine the antiproliferative and cytotoxic effects of the compounds (Skehan, P. et al. (1990) J. Natl. Cancer Inst. 82, 1107-1112; Vichai and Kirtikara (2006) Nat. Protoc. 1, 1112-1116). Approximately 2,000 cells per well (for SK-OV-3, HeLa and βIII-tubulin expressing HeLa) or 4,000 cells per well (for HCC1806 and HCC1937) were seeded in 96-well plates. For each biological replicate, cells were treated in triplicate with each concentration of compound or vehicle control for 48 h in a final volume of 200 μL. The plates were fixed with 10% trichloroacetic acid for protein precipitation of adherent cells and then washed with distilled water. 100 μL of SRB dye, which binds protein stoichiometrically, was added and then unbound dye removed with 1% acetic acid followed by the addition of 200 μL 10 mM Tris to solubilize the dye, which was quantified by absorbance at 560 nm. The percent growth of treated cells relative to the density at the time of drug addiction was calculated as compared to vehicle treated cells.

The test system of assay [2] is HeLa cells. Description: sulforhodamine B (SRB) antiproliferative assay. Format: cell-based, human. Particulars: 48 h; mean ± SEM; read-out: GI50, concentration that causes a 50% decrease in proliferation, HeLa.
Text: as §1, §2

The target in assay [3] is T1, purified porcine brain tubulin (Sus scrofa, UniProt P02554).
T1 construct: purified porcine brain tubulin (Cytoskeleton); purchased Cytoskeleton; host or cells: porcine brain
The experiment in a line: biochemical tubulin polymerization assay. Particulars: tubulin 20 μM. As for the experimental part:
Exemplary results of the […] tubulin polymerization assay are illustrated in FIG. 3, FIG. 4B, and FIG. 5B and were obtained as described in Risinger et al., Cancer Research, 2013.
Biochemical tubulin polymerization assays were performed using purified porcine brain tubulin (Cytoskeleton). In individual wells of a 96-well plate, 1 μL of each 100× drug stock was incubated with 20 μM porcine brain tubulin in GPEM glycerol buffer (1 mM GTP, 10% glycerol, 80 mM PIPES pH 6.9, 2 mM MgCl2 and 0.5 mM EGTA) in a final volume of 100 μL. Pure porcine tubulin was prepared on ice at 4° C. to inhibit tubulin polymerization until the assay was initiated, while the plate reader was pre-warmed to 37° C. Tubulin polymerization was measured every minute for an hour by light scattering at 340 nm in a Spectramax plate reader using SoftMax software (Molecular Devices). Light scattering was normalized to the initial measurement for each well. For the probe-tubulin binding assay, samples were prepared on ice in tubes instead of a 96 well plate, and moved to a 37° C. heat block to initiate binding and polymerization. The time zero (0′) sample consisted of tubulin polymerization buffer prior to addition of taccalonolide probe. […]

SMILES strings stand for the structures.

T1 sequence (P02554 whole entry): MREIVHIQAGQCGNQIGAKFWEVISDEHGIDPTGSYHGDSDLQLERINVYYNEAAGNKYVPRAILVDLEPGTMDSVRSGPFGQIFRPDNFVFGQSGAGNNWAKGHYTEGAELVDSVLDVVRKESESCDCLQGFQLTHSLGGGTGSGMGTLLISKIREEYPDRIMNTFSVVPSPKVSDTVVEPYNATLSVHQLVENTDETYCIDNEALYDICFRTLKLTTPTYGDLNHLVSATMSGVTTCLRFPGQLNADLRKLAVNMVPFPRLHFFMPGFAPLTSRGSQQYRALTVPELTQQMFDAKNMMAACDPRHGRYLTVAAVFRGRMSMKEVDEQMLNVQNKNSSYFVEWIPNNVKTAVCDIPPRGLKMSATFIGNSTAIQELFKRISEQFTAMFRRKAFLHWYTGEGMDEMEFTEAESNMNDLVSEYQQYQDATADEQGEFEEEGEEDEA
T1 sequence (P02550 whole entry partner): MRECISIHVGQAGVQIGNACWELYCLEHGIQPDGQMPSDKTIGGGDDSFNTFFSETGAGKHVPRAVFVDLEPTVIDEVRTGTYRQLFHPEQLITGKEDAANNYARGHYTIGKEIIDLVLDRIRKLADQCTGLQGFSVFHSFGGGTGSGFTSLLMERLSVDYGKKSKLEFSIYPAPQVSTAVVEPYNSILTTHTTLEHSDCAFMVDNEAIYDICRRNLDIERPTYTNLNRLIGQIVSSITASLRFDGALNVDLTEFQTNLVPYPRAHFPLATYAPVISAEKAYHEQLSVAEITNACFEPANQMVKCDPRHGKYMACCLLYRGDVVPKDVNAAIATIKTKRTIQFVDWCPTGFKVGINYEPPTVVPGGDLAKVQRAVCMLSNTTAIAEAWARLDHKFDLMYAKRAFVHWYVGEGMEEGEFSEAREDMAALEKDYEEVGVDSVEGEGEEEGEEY

With `CC(=O)O[C@H]1[C@H]2[C@H]([C@@H]3[C@@H](O)[C@@H]4[C@H]([C@H](C)[C@@H]5O[C@@]56OC(=O)[C@@](C)(O)[C@]46C)[C@@]3(C)[C@H]1OC(C)=O)[C@@H](O)C(=O)[C@H]1C[C@@H]3O[C@@H]3[C@H](OC(C)=O)[C@]21C` [compound 2, taccalonolide AJ, reference compound], the GI50 is 6.2 nM in assay [1] and 8.5 nM in assay [2]. Besides, in assay [3], the “concentration range promoting polymerization of purified tubulin” value was 5 to 20 µM.
